Drawing on PubChem BioAssay (NCI), this text covers TGI for five compounds.

Molecules are shown by their SMILES.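 Dose response: 5 concentrations. Exposure: 48 h. Format: 96-well plates. Endpoint: linear interpolation; highest concentration if not reached. TGI is the concentration that stops growth completely.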 Where only a bound is given, the exact number is not on record here.

Holding throughout (assay): DTP human tumour cell line panel, 48 h
Experiment [1] has as its system HL-60(TB) leukemia.
The subject of experiment [2] is T-47D breast.
For experiment [3], the system named is UACC-257 melanoma.
Experiment [4] deals with LOX IMVI melanoma.
The test system of experiment [5] is M14 melanoma.
Experiment [6] deals with HCT-15 colon.
For experiment [7], the system named is DU-145 prostate.
The subject of experiment [8] is HCT-116 colon.
In experiment [9] the test system is SF-268 CNS.
In experiment [10] the test system is COLO 205 colon.
Experiment [11] has as its system RXF 393 renal.
Experiment [12] concerns SR leukemia.
Experiment [13] relates to SK-MEL-2 melanoma.
The subject of experiment [14] is SF-295 CNS.
In experiment [15] the test system is UO-31 renal.
Experiment [16] relates to HS 578T breast.

Regarding `Cc1csc(NNC(=O)Nc2ccccc2)n1`, the TGI in [1], in [2], in experiment [3], in experiment [4], in experiment [5] and in [6] was over 100 µM throughout. Moreover, the TGI in [7], in experiment [8], in experiment [9], in [10], in [11] and in experiment [12] was over 100 µM in each case. In addition, the TGI in [13], in experiment [14], in [15] and in experiment [16] was over 100 µM each time.
Regarding `Cc1cc2nc(N3C(=O)/C(=C/c4ccc(N(C)C)cc4)N=C3c3ccccc3)sc2cc1C`, the concentration for total growth inhibition (TGI) (as a rule, the concentration giving total growth inhibition) is 46.2 µM in experiment [1]; over 100 µM in [2]; over 100 µM in [3]; over 100 µM in [4]; 73.1 µM in experiment [5]; over 100 µM in experiment [6]. For the same compound, the TGI in experiment [7] was over 100 µM; in experiment [8], 43 µM; in experiment [9], over 100 µM; in experiment [10], 40.7 µM; in [11], 57.9 µM; in [12], 41.3 µM. Further, the TGI in experiment [13] was 65.3 µM; in experiment [14] it was over 100 µM; in experiment [15], 87.4 µM; in experiment [16], over 100 µM.
As to `CC1(C)OC(=O)C(Cc2ccccc2)(Cc2ccccc2)C(=O)O1`, the TGI in [1], in experiment [2], in experiment [3], in experiment [4], in [5] and in experiment [6] was over 100 µM throughout. Also, the TGI in [7], in experiment [8], in experiment [9], in experiment [10], in [11] and in experiment [12] was over 100 µM in each case. Moreover, the TGI in [13], in experiment [14], in experiment [15] and in experiment [16] was over 100 µM throughout.
Take `Cc1ccc(N=C2C(c3ccccc3)=C(SC3=C(c4ccccc4)C(=Nc4ccc(C)cc4)c4ccccc43)c3ccccc32)cc1`: the concentration for total growth inhibition (TGI) is 17.8 µM in experiment [1]; over 100 µM in [2]; over 100 µM in experiment [3]; over 100 µM in [4]; over 100 µM in experiment [5]; over 100 µM in [6]. In addition, the TGI in [7] is over 100 µM; in experiment [8], over 100 µM; in experiment [9] it was 18.8 µM; in experiment [10] it was over 100 µM; in experiment [11] it was 27.9 µM; in [12] it was over 100 µM. Also, the TGI in [13] is over 78.7 µM; in [14], 27.4 µM; in experiment [15] it was 33.3 µM; in [16] it was 22.9 µM.
Take `C1CN2CCNCCN(CCN1)CC2`: the TGI in [1], in experiment [2], in [3], in experiment [4], in experiment [5] and in [6] was over 100 µM throughout. Moreover, the TGI in experiment [7], in experiment [8], in experiment [9], in [10], in [11] and in experiment [12] was over 100 µM in each case. Besides, the TGI in experiment [13], in [14], in experiment [15] and in experiment [16] was over 100 µM each time.
